Experimental data reported in the NIST ThermoML archive (doi:10.1016/j.fluid.2017.04.014).
± gives the expanded uncertainty stated by the source.

Settings: Liquid, Closed cell (Static) method

Compound | vapor or sublimation pressure (283.6 K) [kPa] | vapor or sublimation pressure (293.4 K) [kPa] | vapor or sublimation pressure (298.3 K) [kPa] | vapor or sublimation pressure (298.4 K) [kPa] | vapor or sublimation pressure (303.3 K) [kPa] | vapor or sublimation pressure (308.2 K) [kPa] | vapor or sublimation pressure (313.1 K) [kPa] | vapor or sublimation pressure (318.1 K) [kPa] | vapor or sublimation pressure (323 K) [kPa] | vapor or sublimation pressure (332.8 K) [kPa] | vapor or sublimation pressure (327.9 K) [kPa] | vapor or sublimation pressure (337.8 K) [kPa] | vapor or sublimation pressure (303.2 K) [kPa] | vapor or sublimation pressure (308.1 K) [kPa] | further results
CC(C)CC(C)(C)C [2,2,4-trimethylpentane] | 3.05 ± 0.46 | 5.18 ± 0.51 | 6.63 ± 0.42 | 6.62 ± 0.42 | 8.39 ± 0.64 | 10.53 ± 0.7 | 12.97 ± 0.8 | 15.96 ± 0.94 | 19.54 ± 1.1 | 28.66 ± 1.4 | – | – | – | – | vapor or sublimation pressure (288.4 K): 3.99 ± 0.48 kPa; vapor or sublimation pressure (328 K): 23.81 ± 1.3 kPa
COC(C)(C)C [2-methoxy-2-methylpropane] | 17.79 ± 1.1 | – | – | 33.72 ± 1.8 | 41.1 ± 2.1 | 49.8 ± 2.4 | 59.9 ± 2.8 | 71.61 ± 3.3 | 85.01 ± 3.8 | – | 100.34 ± 4.4 | 137.39 ± 5.4 | – | – | vapor or sublimation pressure (288.6 K): 22.07 ± 1.2 kPa; vapor or sublimation pressure (293.5 K): 27.43 ± 1.5 kPa; vapor or sublimation pressure (332.9 K): 117.7 ± 5 kPa
CCO [ethanol] | – | 5.95 ± 0.56 | 7.96 ± 0.7 | – | – | – | 17.87 ± 1.2 | 22.98 ± 1.5 | – | 46.15 ± 2.6 | 36.73 ± 2.3 | – | 10.52 ± 0.85 | 13.84 ± 1 | vapor or sublimation pressure (278.6 K): 2.18 ± 0.45 kPa; vapor or sublimation pressure (283.5 K): 3.11 ± 0.5 kPa; vapor or sublimation pressure (322.9 K): 29.05 ± 1.9 kPa
Cc1ccccc1 [toluene] | 1.7 ± 0.42 | 2.97 ± 0.45 | 3.89 ± 0.47 | – | – | – | 7.99 ± 0.62 | – | 12.26 ± 0.77 | 18.26 ± 1 | 15 ± 0.9 | 22.04 ± 1.1 | 5 ± 0.5 | 6.27 ± 0.55 | vapor or sublimation pressure (278.7 K): 1.26 ± 0.41 kPa; vapor or sublimation pressure (288.5 K): 2.26 ± 0.43 kPa; vapor or sublimation pressure (318 K): 9.95 ± 0.68 kPa
